Measurements as given in ChEMBL document CHEMBL1127416, “GC sequence specific recognition by an N-formamido, C-terminus-modified and imidazole-containing analogue of netropsin” (J Med Chem, 1994).

Legend:
Format in all cases: nucleic-acid assay
[1] = test system: Nucleic Acid; test: The binding constants against calf thymus DNA; conditions: Bos taurus
[2] = test system: Nucleic Acid; test: The binding constants against T4 coliphage DNA
[3] = test system: Nucleic Acid; test: The binding constants against poly(dA-dT) DNA
[4] = test system: Nucleic Acid; test: The binding constants against […] DNA

Row | Ka [2] [M⁻¹] | Ka [3] [M⁻¹] | Ka [4] [M⁻¹] | Structure (SMILES) | Ka [1] [M⁻¹]
1 | 19000 | 65000 | 105000 | CN(C)CCn1cc(NC(=O)c2nc(NC=O)cn2C)nc1C(N)=O | 137000
2 | – | – | – | Cn1cc(NC(=O)c2cc(NC(=O)CNC(=N)N)cn2C)cc1C(=O)NCCC(=N)N | 1.87e+06
